Where a name gives a salt, the structure may show the parent alone.
Key:
[1] = system: tetrabenazine induced sedation; test: Antitetrabenazine test (prevention of tetrabenazine induced sedation); format: in vivo; conditions: Mus musculus; CD1 male mice; compound ip 30 min before tetrabenazine hydrochloride ip; exploratory behavior scored 30 min later; amount required to reverse the tetrabenazine effects in 50 percent of the animals
Protocol: Prevention of tetrabenazine induced sedation was measured using a modification of the method of Vernier, et al., First Hahnemann Symposium on Psychosomatic Medicine, ed. Nodim and Moyer, pub. Lea and Febiger, Philadelphia, 1962.
Mice, three groups of 12 CD1 males each, were injected intraperitoneally (ip) with a solution of compound (IA) or compound (IB) or with a saline solution alone. Thirty minutes later each of the mice was injected (ip, 35 mg/kg) with a solution containing tetrabenazine hydrochloride. Thirty minutes after the injection of tetrabenazine each mouse was examined for its level of exploratory behavior which was scored on a modification of the arbitrary scale defined by Vernier, et. al. The results reported in Table as the ED50 values are the amounts of the test compounds required to reverse the tetrabenazine effects in 50 percent of the animals tested.

Acute toxicity (LD50) = conditions: in vivo, ip, in the mouse, calculated as the hydrochloride salt

For `C[C@@H]1NC(C)(C)CO[C@@]1(O)c1ccccc1` (relative stereo) [IA, cis-3,5,5-Trimethyl-2-phenyl-2-morpholinol hydrochloride], which ED50 [1] is on record?
The ED50 was 18 mg/kg.

And the LD50 (Acute toxicity (LD50))?
The LD50 was about 160 mg/kg.

Which ED50 [1] does the source give for `C[C@@H]1NC(C)(C)CO[C@@]1(O)c1ccc(F)cc1` (relative stereo) [IB, cis-2-(4-Fluorophenyl)-3,5,5-trimethyl-2-morpholinol hydrochloride] here?
The ED50 was 14 mg/kg.

And the LD50 (Acute toxicity (LD50))?
Its LD50 is about 160 mg/kg.
